Source: US10471076B2, “Compositions and methods to treat vision disorders” (YouHealth Biotech, Limited, priority 2014, dated 2019)
“Also recorded” adds a separate entry of the source.

Tested on: cataract-causing mutant crystallins
Experiment: Western blot of soluble and insoluble fractions of cell lysates
Format: cell-based
Details: human lens progenitor cells, n=3, P<0.001
Source text: The cells were harvested and lysed. Supernatant and insoluble fractions were separated by centrifugation and analyzed by western blot analysis. LSS and crystallin fusion proteins were identified by antibodies against Flag and GFP tags, respectively. The lanosterol-treated group is highlighted by red boxes. Cells treated with 1% DMSO were used as a control. β-Actin was used as an internal protein loading control of total cell lysates (TCL). S, supernatant; P, insoluble fraction. […] Crystallin aggregates were formed by incubating 5 mg ml^−1 protein solution at 60° C. for 2 h (α-crystallins) or 37° C. for 48 h (β- and γ-crystallins) in the presence of 1 M guanidine chloride. The preformed aggregates were re-suspended in PBS at a final protein concentration of 0.2 mg ml^−1 and were treated with 500 μM sterols in 500 μM DPPC liposome and incubated at 37° C. for 24 h. […] Aggregates treated with 500 μM DPPC liposome only were used as the controls.
LC-MS analysis. […] The derived samples were analyzed by an Agilent 1290/6460 triple quadrupole LC/MS using an alternative Atmospheric Pressure Chemical Ionisation (APCI) source. […] Quantification of the western blot bands was achieved using the software GELPRO (Media Cybernetics). The presented quantitative data were calculated from three independent experiments.

For `CC(C)=CCC[C@@H](C)[C@H]1CC[C@@]2(C)C3=C(CC[C@]12C)[C@@]1(C)CC[C@H](O)C(C)(C)[C@@H]1CC3` [lanosterol, 3β-Hydroxy-8,24-lanostadiene; 8,24-Lanostadien-3β-ol], the “amount of mutant crystallins in the soluble fractions of cell lysates” value was “increased the amounts of mutant crystallins in the soluble fractions; also recorded: increased cataract-causing mutant crystallins in soluble fractions”.
